Eleven molecules from ChEMBL document CHEMBL1671624, “Efficacy of quinoxaline-2-carboxylate 1,4-di-N-oxide derivatives in experimental tuberculosis” (Antimicrob Agents Chemother, 2008) can be followed below.

Type in all cases: functional
The subject of test [1] is Mycobacterium tuberculosis. Put plainly: Antibacterial activity against thiacetazone-resistant Mycobacterium tuberculosis by microplate Alamar Blue assay.
Test [2] concerns Mycobacterium tuberculosis. The test is described as follows: Antibacterial activity against ethionamide-resistant Mycobacterium tuberculosis by microplate Alamar Blue assay. A general note: The colour change of resazurin is a common sign of viable cells or microbes.
The test system of test [3] is Mycobacterium tuberculosis. Put plainly: Antibacterial activity against ciprofloxacin-resistant Mycobacterium tuberculosis by microplate Alamar Blue assay.
Test [4] concerns Mycobacterium tuberculosis. Put plainly: Antibacterial activity against rifampin-resistant Mycobacterium tuberculosis by microplate Alamar Blue assay.
Test [5] relates to Mycobacterium tuberculosis. The test is described as follows: Antibacterial activity against kanamycin-resistant Mycobacterium tuberculosis by microplate Alamar Blue assay.
For test [6], the system named is Mycobacterium tuberculosis. Put plainly: Antibacterial activity against isoniazid-resistant Mycobacterium tuberculosis by microplate Alamar Blue assay.
The test system of test [7] is Mycobacterium tuberculosis. Put plainly: Antibacterial activity against ethambutol-resistant Mycobacterium tuberculosis by microplate Alamar Blue assay.

SMILES strings stand for the structures. Values after ≈ are worked out from the molar mass of the structure shown.

As to `CCOC(=O)c1c(C)[n+]([O-])c2ccc(C)cc2[n+]1[O-]`, the MIC (as a rule, the lowest concentration that inhibits growth of the organism) worked out at 0.39 µg/mL (≈ 1.49 µM) in test [1], 6.25 µg/mL (≈ 23.8 µM) in test [2], 6.25 µg/mL (≈ 23.8 µM) in test [3] and 3.13 µg/mL (≈ 11.9 µM) in test [4].
On to `COC(=O)c1c(C)[n+]([O-])c2ccc(C)cc2[n+]1[O-]`, for which the MIC in test [1] amounted to 1.56 µg/mL (≈ 6.28 µM); in test [2], 3.13 µg/mL (≈ 12.6 µM); in test [5] it was 25 µg/mL (≈ 101 µM); in test [3], 6.25 µg/mL (≈ 25.2 µM); in test [4], 3.13 µg/mL (≈ 12.6 µM); in test [6], 6.25 µg/mL (≈ 25.2 µM). The same molecule gave a minimum inhibitory concentration (MIC) in test [7] of 25 µg/mL (≈ 101 µM).
In the case of `CCOC(=O)c1c(C)[n+]([O-])c2ccccc2[n+]1[O-]`, the MIC amounted to 1.56 µg/mL (≈ 6.28 µM) in test [5], 3.13 µg/mL (≈ 12.6 µM) in test [3], 1.56 µg/mL (≈ 6.28 µM) in test [4] and 1.56 µg/mL (≈ 6.28 µM) in test [6].
As to `Cc1c(C(=O)OCc2ccccc2)[n+]([O-])c2cc(Cl)c(Cl)cc2[n+]1[O-]`, the MIC in test [1] worked out at 0.78 µg/mL (≈ 2.06 µM); in test [2], 0.78 µg/mL (≈ 2.06 µM); in test [5] it was 0.39 µg/mL (≈ 1.03 µM); in test [3], 0.39 µg/mL (≈ 1.03 µM); in test [4], 0.39 µg/mL (≈ 1.03 µM); in test [6], 1.56 µg/mL (≈ 4.11 µM). Also, in test [7], 0.78 µg/mL (≈ 2.06 µM) was the least that counted as inhibitory (MIC).
As to `CCOC(=O)c1c(C)[n+]([O-])c2ccc(Cl)cc2[n+]1[O-]`, the minimum inhibitory concentration (MIC) was found to be 0.39 µg/mL (≈ 1.38 µM) in test [5]; 0.78 µg/mL (≈ 2.76 µM) in test [3]; 0.39 µg/mL (≈ 1.38 µM) in test [4]; 0.39 µg/mL (≈ 1.38 µM) in test [6]; 0.39 µg/mL (≈ 1.38 µM) in test [7].
Regarding `COC(=O)c1c(C)[n+]([O-])c2cc(C)c(C)cc2[n+]1[O-]`, the minimum inhibitory concentration (MIC) in test [1] is at most 1.56 µg/mL; in test [2], 3.13 µg/mL (≈ 11.9 µM); in test [5], 3.13 µg/mL (≈ 11.9 µM); in test [3], 3.13 µg/mL (≈ 11.9 µM); in test [4], 3.13 µg/mL (≈ 11.9 µM); in test [6] it was 3.13 µg/mL (≈ 11.9 µM). Further, in test [7], the MIC is at most 1.56 µg/mL.
Turning to `Cc1ccc2c(c1)[n+]([O-])c(C(=O)OCc1ccccc1)c(C)[n+]2[O-]`, the MIC in test [1] amounted to 0.39 µg/mL (≈ 1.2 µM); in test [2] it was 1.56 µg/mL (≈ 4.81 µM); in test [3], 0.39 µg/mL (≈ 1.2 µM); in test [4], 0.39 µg/mL (≈ 1.2 µM).
As for `CCOC(=O)c1c(C)[n+]([O-])c2cc(Cl)c(Cl)cc2[n+]1[O-]`, the MIC in test [5] is at most 0.1 µg/mL; in test [3], 0.2 µg/mL (≈ 0.631 µM); in test [4], 0.2 µg/mL (≈ 0.631 µM); in test [6], 0.39 µg/mL (≈ 1.23 µM); in test [7] it was 0.2 µg/mL (≈ 0.631 µM).
For the molecule `CCOC(=O)c1c(C)[n+]([O-])c2cc(C)c(C)cc2[n+]1[O-]`, the MIC in test [1] is at most 3.13 µg/mL; in test [2], 6.25 µg/mL (≈ 22.6 µM); in test [5] it was at most 3.13 µg/mL; in test [3] it was 12.5 µg/mL (≈ 45.2 µM); in test [4] it was at most 3.13 µg/mL; in test [6] it was 6.25 µg/mL (≈ 22.6 µM). The same molecule yielded an MIC in test [7] of at most 3.13 µg/mL.
On to `Cc1c(C(=O)OCc2ccccc2)[n+]([O-])c2ccccc2[n+]1[O-]`, for which the MIC in test [1] came to 0.2 µg/mL (≈ 0.645 µM); in test [2] it was 0.4 µg/mL (≈ 1.29 µM); in test [3] it was 0.1 µg/mL (≈ 0.322 µM); in test [4], 0.2 µg/mL (≈ 0.645 µM); in test [6], 0.2 µg/mL (≈ 0.645 µM).
On to `COCCOC(=O)c1c(C)[n+]([O-])c2cc(Cl)c(Cl)cc2[n+]1[O-]`, for which the MIC in test [1] was 0.39 µg/mL (≈ 1.12 µM); in test [2], 0.78 µg/mL (≈ 2.25 µM); in test [3], 0.39 µg/mL (≈ 1.12 µM); in test [4], at most 0.2 µg/mL; in test [6], at most 0.2 µg/mL.
